Assay results from US20250034084A1, “COMPOSITIONS AND METHODS FOR PREVENTING OR TREATING MYCOSIS” (AMTIXBIO CO., LTD., priority 2016, published 2025).
In brackets after ≈: the same amount, converted by molar mass.

Legend:
Experiment in all cases: Antifungal activity assay (MIC), NCCLS method
Format in all cases: cell-based
Details in all cases: RPMI 1640 medium
[1] = test system: Candida albicans SC5314 (ATCC)
Description: (§1) In order to measure the minimum inhibitory concentration (MIC), strains Candida albicans SC5314 (ATCC), Candida glabrata BG2 (ATCC), and Cryptococcus neoformans var. grubii […] were used. All the strains used in the test examples of the present invention were purchased from Korean Culture Center of Microorganisms (KCCM) and ATCC, and used. […] As a control group, amphotericin B and fluconazole, which are known to have excellent antifungal inhibitory activity with a problem of human toxicity, were used. Specifically, in order to prepare a medium first, 8.4 g of RPMI-1640 powder (Sigma; […]-1L) was added to 900 ml of distilled water. Next, 34.5 g of MOPS was added thereto, to bring the final concentration to 0.165 M. Then, 100 ml of 20% glucose was added thereto, and then the pH of the resultant was adjusted to 7 using NaOH. Next, after performing filtration with a filter, the filtrate was stored in a refrigeration condition at 4° C. for use in the next experiment. The experimental method and procedure for the MIC assay were as follows: […] (c) in a case of Aspergillus fumigatus, a diluent was prepared at a concentration of 1×10^5 conidia/ml; (d) a 96-well plate was used and 100 μl of the solution was added to each well, so that 2 μl of diluted drug was prepared; (e) 200 μl of the solution was added to a well into which the highest concentration of drug was to be added, and dilution was performed by serial dilution; (f) after performing static culture for 48 hours at 37° C., a degree of growth was measured at OD600 and a comparison was made.

[2] = test system: Candida glabrata BG2 (ATCC)
Description: as §1

[3] = test system: Cryptococcus neoformans var. grubii H99 (ATCC)
Description: as §1

Compound | MIC C. albicans [1] [µg/mL] | MIC C. glabrata [2] [µg/mL] | MIC C. neoformans [3] [µg/mL] | MIC C. neoformans ([3]; hydrochloride) [µg/mL] | MIC C. glabrata ([2]; hydrochloride) [µg/mL]
CCC(N)C(=O)NCc1ccc(OCc2ccccc2F)cc1.Cl (racemic) [Compound 17, (R)/(S)-1-((4-((2-(fluorobenzyl)oxy)benzyl)amino)-1-oxobutane-2-aminum chloride] | >128 | >128 | 64 | – | –
CCC(N)C(=O)NCc1ccc(OCc2ccc(F)cc2)cc1.Cl (racemic) [Compound 19, (R)/(S)-1-((4-((4-(fluorobenzyl)oxy)benzyl)amino)-1-oxobutane-2-aminium chloride] | >128 | >128 | 64 | – | –
CCC(N)C(=O)NCc1ccc(OCc2ccccc2C(F)(F)F)cc1.Cl (racemic) [Compound 20, (R)/(S)-1-oxo-1-((4-((2-(trifluoromethyl)benzyl)oxy)benzyl)amino)butane-2-aminium chloride] | 64 | 64 | 16 | – | –
CCC(N)C(=O)NCc1ccc(OCc2cccc(C(F)(F)F)c2)cc1.Cl (racemic) [Compound 21, (R)/(S)-1-oxo-1-((4-((3-(trifluoromethyl)benzyl)oxy)benzyl)amino)butane-2-aminium chloride] | 64 | 64 | 16 | – | –
CCC(N)C(=O)NCc1ccc(OCc2cccc(Cl)c2)cc1.Cl (racemic) [Compound 23, (R)/(S)-1-((4-((3-(chlorobenzyl)oxy)benzyl)amino)-1-oxobutane-2-aminium chloride] | 64 | 64 | 16 | – | –
CCC(N)C(=O)NCc1ccc(OCc2ccc(Cl)cc2)cc1.Cl (racemic) [Compound 24, (R)/(S)-1-((4-((4-(chlorobenzyl)oxy)benzyl)amino)-1-oxobutane-2-aminium chloride] | 64 | 32 | 16 | – | –
CCCC(N)C(=O)NCc1ccc(OCc2cccc(F)c2)cc1.Cl (racemic) [Compound 25, (R)/(S)-1-((4-((3-fluorobenzyl)oxy)benzyl)amino)-1-oxopentane-2-aminium chloride] | 128 | 64 | 32 | – | –
CCC(NC)C(=O)NCc1ccc(OCc2ccc(C(F)(F)F)cc2)cc1 (racemic) [Compound 27, (R)/(S)-2-(methylamino)-N-(4-((4-trifluoromethyl)benzyl)oxy)benzyl)butanamide] | 16 (≈ 42.1 µM) | 16 (≈ 42.1 µM) | 4 (≈ 10.5 µM) | – | –
CCC(NC)C(=O)NCc1ccc(OCc2ccc(Cl)cc2)cc1 (racemic) [Compound 29, (R)/(S)-N-(4-((4-chlorobenzyl)oxy)benzyl)-2-(methylamino)butanamide] | 32 (≈ 92.3 µM) | 32 (≈ 92.3 µM) | 8 (≈ 23.1 µM) | – | –
CCCC(NC)C(=O)NCc1ccc(OCc2ccc(C(F)(F)F)cc2)cc1 (racemic) [Compound 30, (R)/(S)-2-(methylamino)-N-(4-(4-trifluoromethyl)benzyl)oxy)benzyl)pentanamide] | 8 (≈ 20.3 µM) | 8 (≈ 20.3 µM) | 2 (≈ 5.07 µM) | – | –
CCCC(NC)C(=O)NCc1ccc(OCc2ccc(C(F)(F)F)cc2)cc1 (racemic) [Compound 31, (R)/(S)-2-(methylamino)-N-(4-((4-trifluoromethyl)benzyl)oxy)benzyl)pentanamide] | 16 (≈ 40.6 µM) | 16 (≈ 40.6 µM) | 4 (≈ 10.1 µM) | – | –
Cl.O=C(NCc1ccc(OCc2cccc(F)c2)cc1)C1CCCN1 (racemic) [Compound 38, (R)/(S)-N-(4-((3-fluorobenzyl)oxy)benzyl)pyrrolidine-2-carboxamide hydrochloride] | – | – | – | 128 | –
Cl.O=C(NCc1ccc(OCc2ccc(F)cc2)cc1)C1CCCN1 (racemic) [Compound 39, (R)/(S)-N-(4-((4-fluorobenzyl)oxy)benzyl)pyrrolidine-2-carboxamide hydrochloride] | >128 | >128 | 128 | – | –
Cl.O=C(NCc1ccc(OCc2ccc(C(F)(F)F)cc2)cc1)C1CCCN1 (racemic) [Compound 40, (R)/(S)-N-(4-((4-(trifluoromethyl)benzyl)oxy)benzyl)pyrrolidine-2-carboxamide hydrochloride] | 64 | – | – | 16 | 32
Cl.O=C(NCc1ccc(OCc2ccc(Cl)cc2)cc1)C1CCCN1 (racemic) [Compound 41, (R)/(S)-N-(4-((4-chlorobenzyl)oxy)benzyl)pyrrolidine-2-carboxamide hydrochloride] | 64 | – | – | 32 | 64
CN1CCCC1C(=O)NCc1ccc(OCc2cccc(F)c2)cc1 (racemic) [Compound 42, (R)/(s)-1-methyl-N-(4-((3-fluorobenzyl)oxy)benzyl)pyrrolidine-2-carboxamide] | 128 (≈ 374 µM) | 128 (≈ 374 µM) | 16 (≈ 46.7 µM) | – | –
CN1CCCC1C(=O)NCc1ccc(OCc2ccc(C(F)(F)F)cc2)cc1 (racemic) [Compound 43, (R)/(S)-1-methyl-N-(4-((4-(trifluoromethyl)benzyl)oxy)benzyl)pyrrolidine-2-carboxamide] | 32 (≈ 81.5 µM) | 64 (≈ 163 µM) | 8 (≈ 20.4 µM) | – | –
CCC(N)C(=O)NCc1ccc(OCc2ccc(Cl)c(Cl)c2)cc1.Cl (racemic) [Compound 57, (R)/(S)-1-((4-(3,4-dichlorobenzyl)oxy)benzyl)amino)-1-oxobutane-2-aminium chloride] | – | – | 8 | – | –
CCCC(N)C(=O)NCc1ccc(OCc2ccc(Cl)c(Cl)c2)cc1.Cl (racemic) [Compound 58, (R)/(S)-1-((4-((3,4-dichlorobenzyl)oxy)benzyl)amino)-1-oxopentane-2-aminium chloride] | – | – | 4 | – | –
CCC(C(=O)NCc1ccc(OCc2ccc(C(F)(F)F)cc2)cc1)N(C)C (racemic) [Compound 59, (R)/(S)-2-(dimethylamino)-N-(4-((4-trifluoromethyl)benzyl)oxy)benzyl)butanamide] | – | – | 8 (≈ 20.3 µM) | – | –
CCC(C(=O)NCc1ccc(OCc2ccc(Cl)c(Cl)c2)cc1)N(C)C (racemic) [Compound 60, (R)/(S)-N-(4-((3,4-dichlorobenzyl)oxy)benzyl)-2-(dimethylamino)butanamide] | – | – | 8 (≈ 20.2 µM) | – | –
CCC(C(=O)NCc1ccc(OCc2ccc(Cl)c(Cl)c2)cc1)N(C)C (racemic) [Compound 61, (R)/(S)-N-(4-((3,4-dichlorobenzyl)oxy)benzyl)-2-(dimethylamino)butanamide] | – | – | 2 (≈ 5.06 µM) | – | –
CCNC(CC)C(=O)NCc1ccc(OCc2ccc(C(F)(F)F)cc2)cc1 (racemic) [Compound 62, (R)/(S)-2-(ethylamino)-N-(4-((4-trifluoromethyl)benzyl)oxy)benzyl)butanamide] | – | – | 8 (≈ 20.3 µM) | – | –
CCNC(CC)C(=O)NCc1ccc(OCc2ccc(Cl)c(Cl)c2)cc1 (racemic) [Compound 63, (R)/(S)-N-(4-((3,4-dichlorobenzyl)oxy)benzyl-2-(ethylamino)butanamide] | – | – | 4 (≈ 10.1 µM) | – | –
CCCC(NCC)C(=O)NCc1ccc(OCc2ccc(C(F)(F)F)cc2)cc1 (racemic) [Compound 64, (R)/(S)-2-(ethylamino)-N-(4-((4-(trifluoromethyl)benzyl)oxy)benzyl)pentanamide] | – | – | 4 (≈ 9.79 µM) | – | –
CCCC(NCC)C(=O)NCc1ccc(OCc2ccc(Cl)c(Cl)c2)cc1 (racemic) [Compound 65, (R)/(S)-N-(4-((3,4-dichlorobenzyl)oxy)benzyl-2-(ethylamino)pentanamide] | – | – | 2 (≈ 4.89 µM) | – | –
CCC(C(=O)NCc1ccc(OCc2ccc(C(F)(F)F)cc2)cc1)N(CC)CC (racemic) [Compound 66, (R)/(S)-2-(diethylamino)-N-(4-((4-(trifluoromethyl)benzyl)oxy)benzyl)butanamide] | – | – | 4 (≈ 9.47 µM) | – | –
CCC(C(=O)NCc1ccc(OCc2ccc(Cl)c(Cl)c2)cc1)N(CC)CC (racemic) [Compound 67, (R)/(S)-N-(4-((3,4-dichlorobenzyl)oxy)benzyl-2-(diethylamino)butanamide] | – | – | 2 (≈ 4.72 µM) | – | –
CCCC(C(=O)NCc1ccc(OCc2ccc(C(F)(F)F)cc2)cc1)N(CC)CC (racemic) [Compound 68, (R)/(S)-2-(diethylamino)-N-(4-((4-(trifluoromethyl)benzyl)oxy)benzyl)pentanamide] | – | – | 2 (≈ 4.58 µM) | – | –
CCCC(C(=O)NCc1ccc(OCc2ccc(Cl)c(Cl)c2)cc1)N(CC)CC (racemic) [Compound 69, (R)/(S)-N-(4-((3,4-dichlorobenzyl)oxy)benzyl-2-(diethylamino)pentanamide] | – | – | 1 (≈ 2.29 µM) | – | –
